Measured values taken from patent publication US9259006B2, “Antimicrobial compositions and methods of use thereof” (priority 2008, dated 2016).
Where two headings read alike, the source gives them in different places.

Tests used:
E. Coli (ATCC 43888) = assay type: cell-based; settings: inoculum 6.87-log, about 33° F.
[1] = Hypochlorous acid stability and shelf life, DPD assay (Table 10, FIG. 1); assay type: physicochemical
[2] = Spinach leaf 25 grams, 180 min.

| Molecule | Antimicrobial activity (log reduction) of single components (E. Coli (ATCC 43888); Spinach leaf 25 grams, 2 min.) [log] | Antimicrobial activity (log reduction) of single components (E. Coli (ATCC 43888); Spinach leaf 25 grams, 30 min.) [log] | Antimicrobial activity (log reduction) of single components (E. Coli (ATCC 43888); [2]) [log] | Antimicrobial activity (log reduction) of single components (E. Coli (ATCC 43888); Strawberry 25 grams, 2 min.) [log] | Antimicrobial activity (log reduction) of single components (E. Coli (ATCC 43888); Strawberry 25 grams, 30 min.) [log] | Antimicrobial activity (log reduction) of single components (E. Coli (ATCC 43888); Strawberry 25 grams, 180 min.) [log] | level of hypochlorous acid in solution ([1]; in the absence of diol at pH 7) [%] | level of hypochlorous acid in solution ([1]; in the presence of diol at pH 4, at about 4 hours) [%] |
| --- | --- | --- | --- | --- | --- | --- | --- | --- |
| BrBr [Bromine (0.08 wgt. %), Bromine] | 2.11 | 3.28 | 4.44 | 2.32 | 3.32 | 4.89 |  |  |
| O=[O+][O-] [Ozone (0.001 wgt. %), Ozone] | 2.34 | 2.58 | 3.63 | 2.89 | 3.12 | 4.12 |  |  |
| OCl [hypochlorous acid] |  |  |  |  |  |  | 100 | 0 |
| Octyl Phenol Ethoxylate [Octyl Phenol Ethoxylate (0.5 wgt. %)] | 1.15 | 2.47 | 3.11 | 1.05 | 2.78 | 3.9 |  |  |
